Here are results for 75 compounds from ChEMBL document CHEMBL2364335, “Structure-activity relationship data for chemical series of achiral agonists of the ghrelin (growth hormone secretagogue) receptor (Supplementary Bioactivity Data for publication CHEMBL1140573)”.

Each structure is given as a SMILES string.

What is called EC50 is the concentration needed to bring the measured effect to its halfway point. High values mean weaker potency, low ones greater potency.

In this assay the target is Growth hormone secretagogue receptor type 1 (Homo sapiens, UniProt Q92847). Description: SUPPLEMENTARY: Agonist activity at GSHR by FLIPR assay. Same assay as CHEMBL941945. The format is functional.
Chain of Growth hormone secretagogue receptor type 1 (Q92847 whole entry): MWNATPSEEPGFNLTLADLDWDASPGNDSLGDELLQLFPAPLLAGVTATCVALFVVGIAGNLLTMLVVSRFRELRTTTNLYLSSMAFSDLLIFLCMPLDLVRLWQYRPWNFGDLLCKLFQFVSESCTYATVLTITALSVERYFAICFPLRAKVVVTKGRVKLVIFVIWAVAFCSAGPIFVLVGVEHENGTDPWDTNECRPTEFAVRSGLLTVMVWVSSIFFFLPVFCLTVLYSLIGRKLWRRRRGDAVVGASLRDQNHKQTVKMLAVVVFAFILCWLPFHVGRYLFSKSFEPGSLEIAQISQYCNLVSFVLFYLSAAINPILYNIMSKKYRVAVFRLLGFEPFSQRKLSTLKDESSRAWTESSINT
Compound `C[C@@H]1CN(c2cccc(NS(=O)(=O)c3ccc4ccccc4c3)c2)C[C@H](C)N1` gave an EC50 of 0.0158 µM.
For `C[C@@H]1CN(c2cccc(NS(=O)(=O)c3cccc(Cl)c3Cl)c2)C[C@H](C)N1` the value was 0.02 µM; for `C[C@@H]1CN(c2cccc(NS(=O)(=O)c3cc4ccccc4s3)c2)C[C@H](C)N1`, 0.0316 µM; for `C[C@@H]1CN(c2cccc(NS(=O)(=O)c3ccc(-c4cccs4)cc3)c2)C[C@H](C)N1`, 0.00631 µM.
For `C[C@@H]1CN(c2cccc(NS(=O)(=O)c3ccc(-c4ccc(Cl)s4)cc3)c2)C[C@H](C)N1` the value was 0.0251 µM.
Compound `COc1ccc(NS(=O)(=O)c2ccc(-c3ccccc3C)cc2)cc1N1C[C@@H](C)N[C@@H](C)C1` had a half-maximal effective concentration (EC50) of 0.1 µM.
Consider `COc1ccc(N2C[C@@H](C)N[C@@H](C)C2)cc1NS(=O)(=O)c1ccc(-c2ccoc2)cc1`, for which the EC50 was 0.00794 µM.
For `COc1ccc(NS(=O)(=O)c2ccc(-c3cccs3)s2)cc1N1C[C@@H](C)N[C@@H](C)C1` the value was 0.002 µM; for `C[C@@H]1CN(c2cccc(NS(=O)(=O)c3ccc(-n4cccn4)cc3)c2)C[C@H](C)N1`, 0.0251 µM.
For `COc1ccc(NS(=O)(=O)c2ccc(Br)c(C)c2)cc1N1C[C@@H](C)N[C@@H](C)C1` the value was 0.0398 µM; for `COc1ccc(NS(=O)(=O)c2ccc(-c3cccs3)cc2F)cc1N1C[C@@H](C)N[C@@H](C)C1`, 0.00251 µM.
For `COc1ccc(NS(=O)(=O)c2ccc(-c3cccs3)cc2C)cc1N1C[C@@H](C)N[C@@H](C)C1` the value was 0.001 µM; for `COc1ccc(NS(=O)(=O)c2ccc(-c3ccc(F)cc3)cc2)cc1N1C[C@@H](C)N[C@@H](C)C1`, 0.02 µM; for `COc1ccc(NS(=O)(=O)c2ccc(-c3cccc(F)c3F)cc2)cc1N1C[C@@H](C)N[C@@H](C)C1`, 0.0316 µM.
With `C[C@@H]1CN(c2ccc(F)c(NS(=O)(=O)c3ccc(-c4cccs4)cc3)c2)C[C@H](C)N1`, the EC50 was 0.00501 µM.
For `COc1ccc(N2C[C@@H](C)N[C@@H](C)C2)cc1NS(=O)(=O)c1ccc(-c2cc(C)cs2)s1` the value was 0.002 µM; for `COc1ccc(NS(=O)(=O)c2ccc(-c3cc(C)cs3)s2)cc1N1C[C@@H](C)N[C@@H](C)C1`, 0.000794 µM; for `COc1ccc(NS(=O)(=O)c2ccc(-c3ccc(C)cc3)cc2)cc1N1C[C@@H](C)N[C@@H](C)C1`, 0.0794 µM.
The same measure for `COc1ccc(N2C[C@@H](C)N[C@@H](C)C2)cc1NS(=O)(=O)c1ccc(-c2ccccc2C)s1`: 0.0251 µM; for `COc1ccc(NS(=O)(=O)c2ccc(-c3ccccc3C)s2)cc1N1C[C@@H](C)N[C@@H](C)C1`: 0.0501 µM; for `COc1ccc(NS(=O)(=O)c2ccc(-c3c(C)cccc3C)s2)cc1N1C[C@@H](C)N[C@@H](C)C1`: 0.0251 µM.
Compound `COc1ccc(NS(=O)(=O)c2ccc(-c3cccc(C)c3)s2)cc1N1C[C@@H](C)N[C@@H](C)C1` had an EC50 of 0.00398 µM.
`COc1ccc(NS(=O)(=O)c2ccc(-c3ccc(F)cc3)s2)cc1N1C[C@@H](C)N[C@@H](C)C1` showed an EC50 of 0.1 µM. Against the preceding compound, the EC50 is about 25-fold higher.
The same measure for `COc1ccc(N2C[C@@H](C)N[C@@H](C)C2)cc1NS(=O)(=O)c1ccc(-c2ccccc2Cl)s1`: 0.00251 µM; for `COc1ccc(N2C[C@@H](C)N[C@@H](C)C2)cc1NS(=O)(=O)c1ccc(-c2cccc(F)c2)s1`: 0.0316 µM; for `COc1ccc(N2C[C@@H](C)N[C@@H](C)C2)cc1NS(=O)(=O)c1ccc(-c2ccc(C)cc2)s1`: 0.0316 µM.
On to `Cc1ccc(N2C[C@@H](C)N[C@@H](C)C2)cc1NS(=O)(=O)c1ccc(Br)cc1`, for which the EC50 was 0.1 µM.
For the compound `COc1ccc(NS(=O)(=O)c2ccc(-c3ccoc3)s2)cc1N1C[C@@H](C)N[C@@H](C)C1`, it took 0.0126 µM to reach a half-maximal effect (EC50).
The same measure for `Cc1ccc(N2C[C@@H](C)N[C@@H](C)C2)cc1NS(=O)(=O)c1ccc2ccccc2c1`: 0.00501 µM; for `COc1ccc(N2C[C@@H](C)N[C@@H](C)C2)cc1NS(=O)(=O)c1ccc(-c2ccc(C)s2)s1`: 0.0251 µM; for `Cc1ccc(N2C[C@@H](C)N[C@@H](C)C2)cc1NS(=O)(=O)c1cccc2ccccc12`: 0.02 µM.
The same measure for `Cc1ccc(N2C[C@@H](C)N[C@@H](C)C2)cc1NS(=O)(=O)c1ccc(-c2cccs2)cc1`: 0.00398 µM; for `Cc1csc(-c2ccc(S(=O)(=O)Nc3cc(N4C[C@@H](C)N[C@@H](C)C4)ccc3C)cc2)c1`: 0.00126 µM; for `COc1ccc(NS(=O)(=O)c2ccc(-c3cccs3)c(F)c2)cc1N1C[C@@H](C)N[C@@H](C)C1`: 0.00316 µM.
For `COc1ccc(NS(=O)(=O)c2ccc(-c3ccc(C)s3)s2)cc1N1C[C@@H](C)N[C@@H](C)C1` the value was 0.00158 µM.
Regarding `COc1ccc(N2C[C@@H](C)N[C@@H](C)C2)cc1NS(=O)(=O)c1ccc(-c2cc(C)cs2)cc1C`, the EC50 is 0.000398 µM.
The same measure for `COc1ccc(N2C[C@@H](C)N[C@@H](C)C2)cc1NS(=O)(=O)c1ccc(-c2cccc(Cl)c2)cc1`: 0.00251 µM; for `COc1ccc(N2C[C@@H](C)N[C@@H](C)C2)cc1NS(=O)(=O)c1ccc(-c2cc(C)cs2)cc1F`: 0.000501 µM; for `COc1ccc(N2C[C@@H](C)N[C@@H](C)C2)cc1NS(=O)(=O)c1ccc(-c2ccco2)cc1F`: 0.00158 µM.
As for `COc1ccc(N2C[C@@H](C)N[C@@H](C)C2)cc1NS(=O)(=O)c1cccc2cccc(Cl)c12`, the EC50 is 0.01 µM.
Compound `COc1ccc(NS(=O)(=O)c2ccc(-c3cc(C)cs3)cc2)cc1N1C[C@@H](C)N[C@@H](C)C1` had a 50% effective concentration (EC50) of 0.00126 µM.
For `COc1ccc(NS(=O)(=O)c2ccc(-c3ccoc3)cc2)cc1N1C[C@@H](C)N[C@@H](C)C1` the value was 0.0126 µM; for `COc1ccc(N2C[C@@H](C)N[C@@H](C)C2)cc1NS(=O)(=O)c1ccc(-c2ccc(F)cc2F)cc1`, 0.1 µM.
In turn, `COc1ccc(N2C[C@@H](C)N[C@@H](C)C2)cc1NS(=O)(=O)c1ccc(-c2ccccc2F)cc1` gave an EC50 of 0.02 µM.
The same measure for `COc1ccc(N2C[C@@H](C)N[C@@H](C)C2)cc1NS(=O)(=O)c1ccc(-c2cccc(F)c2F)cc1`: 0.0316 µM; for `COc1ccc(N2C[C@@H](C)N[C@@H](C)C2)cc1NS(=O)(=O)c1ccc(-c2cccc(C)n2)cc1F`: 0.00794 µM; for `COc1ccc(N2C[C@@H](C)N[C@@H](C)C2)cc1NS(=O)(=O)c1ccc(-c2cccc(C)n2)c(F)c1`: 0.0794 µM.
The same measure for `C[C@@H]1CN(c2ccc(F)c(NS(=O)(=O)c3ccc(-c4ccccc4)cc3)c2)C[C@H](C)N1`: 0.0316 µM.
For `C[C@@H]1CN(c2ccc(F)c(NS(=O)(=O)c3ccc(-c4cccs4)cc3F)c2)C[C@H](C)N1` the value was 0.02 µM; for `COc1ccc(N2C[C@@H](C)N[C@@H](C)C2)cc1NS(=O)(=O)c1ccc(-c2ccco2)cc1C`, 0.002 µM; for `C[C@@H]1CN(c2ccc(F)c(NS(=O)(=O)c3ccc(-c4cccs4)cc3Cl)c2)C[C@H](C)N1`, 0.00794 µM.
The compound `Cc1cc(-c2cccs2)ccc1S(=O)(=O)Nc1cc(N2C[C@@H](C)N[C@@H](C)C2)ccc1F` gave an EC50 of 0.02 µM. Against the preceding compound, the EC50 is about 2.5-fold higher.
For `C[C@@H]1CN(c2ccc(F)c(NS(=O)(=O)c3ccc(-c4cccs4)c(F)c3)c2)C[C@H](C)N1` the value was 0.01 µM; for `C[C@@H]1CN(c2ccc(F)c(NS(=O)(=O)c3ccc(-c4ccoc4)cc3)c2)C[C@H](C)N1`, 0.0251 µM; for `Cc1cc(-c2ccoc2)ccc1S(=O)(=O)Nc1cc(N2C[C@@H](C)N[C@@H](C)C2)ccc1F`, 0.0316 µM.
For the compound `C[C@@H]1CN(c2ccc(F)c(NS(=O)(=O)c3ccc(-c4ccoc4)c(F)c3)c2)C[C@H](C)N1`, the EC50 is 0.0158 µM.
The same measure for `C[C@@H]1CN(c2ccc(F)c(NS(=O)(=O)c3ccc(-c4ccoc4)cc3Cl)c2)C[C@H](C)N1`: 0.02 µM; for `COc1ccc(N2C[C@@H](C)N[C@@H](C)C2)cc1NS(=O)(=O)c1ccc(-c2cccc(C)n2)cc1C`: 0.00631 µM.
The same measure for `COc1ccc(N2C[C@@H](C)N[C@@H](C)C2)cc1NS(=O)(=O)c1cc(C)c(-c2ccccc2F)s1`: 0.0631 µM.
For `COc1ccc(N2C[C@@H](C)N[C@@H](C)C2)cc1NS(=O)(=O)c1cc(C)c(-c2cccc(C)n2)s1` the value was 0.0126 µM; for `COc1ccc(N2C[C@@H](C)N[C@@H](C)C2)cc1NS(=O)(=O)c1ccc(-c2csnn2)s1`, 0.0251 µM.
Regarding `COc1ccc(N2C[C@@H](C)N[C@@H](C)C2)cc1NS(=O)(=O)c1ccc2c(c1)CCC(C)(C)O2`, a half-maximal effect (EC50) was put at 0.0316 µM.
In turn, `COc1ccc(N2C[C@@H](C)N[C@@H](C)C2)cc1NS(=O)(=O)c1ccc(-c2ccsc2)c(C)c1` showed an EC50 of 0.00794 µM.
In turn, `COc1ccc(N2C[C@@H](C)N[C@@H](C)C2)cc1NS(=O)(=O)c1ccc2c(c1)OCCN2C` had an EC50 of 0.0794 µM.
The same measure for `COc1ccc(N2C[C@@H](C)N[C@@H](C)C2)cc1NS(=O)(=O)c1ccc(-c2ccsc2)cc1C`: 0.00501 µM.
`COc1ccc(N2C[C@@H](C)N[C@@H](C)C2)cc1NS(=O)(=O)c1ccc(-c2csc(C)n2)s1` gave an EC50 of 0.0398 µM.
For `COc1ccc(N2C[C@@H](C)N[C@@H](C)C2)cc1NS(=O)(=O)c1ccc(-c2nccs2)cc1` the value was 0.0126 µM; for `COc1ccc(N2C[C@@H](C)N[C@@H](C)C2)cc1NS(=O)(=O)c1ccc(-c2ccc(C)s2)cc1F`, 0.00398 µM; for `COc1ccc(N2C[C@@H](C)N[C@@H](C)C2)cc1NS(=O)(=O)c1ccc(-c2ccsc2)cc1Cl`, 0.00316 µM.
The same measure for `COc1ccc(N2C[C@@H](C)N[C@@H](C)C2)cc1NS(=O)(=O)c1cccc(-c2ccoc2)c1`: 0.0398 µM; for `COc1ccc(N2C[C@@H](C)N[C@@H](C)C2)cc1NS(=O)(=O)c1cccc(-c2cc(C)cs2)c1`: 0.0501 µM.
For `COc1cc(Br)ccc1S(=O)(=O)Nc1cc(N2C[C@@H](C)N[C@@H](C)C2)ccc1F` the value was 0.1 µM; for `Cc1cc(S(=O)(=O)Nc2cc(N3C[C@@H](C)N[C@@H](C)C3)ccc2F)ccc1Br`, 0.0631 µM.
With `COc1ccc(N2C[C@@H](C)N[C@@H](C)C2)cc1NS(=O)(=O)c1ccc(-c2cccn2C)cc1`, the EC50 was 0.02 µM. This EC50 is about 3.2-fold lower than that of the compound before.
`COc1ccc(N2C[C@@H](C)N[C@@H](C)C2)cc1NS(=O)(=O)c1ccc(-c2ccc(C)s2)c(C)c1` showed an EC50 of 0.00631 µM.
